Activity data for four molecules are collected here from ChEMBL document CHEMBL1143340, “Osteogenic activity of constituents from Butea monosperma” (Bioorg Med Chem Lett, 2009).

The source made the active and inactive calls. The rule behind the calls is not given here.

The test system of this experiment is Osteoblast. The experiment is described as follows: Induction of mineralization in Sprague-Dawley rat calvaria derived primary osteoblast after 7 days by Alizarin Red S staining. The format is functional, cell-based.
On to `COc1ccc2c(=O)c(-c3ccc(O)cc3)coc2c1`, for which the outcome was Active.
As for `COc1ccc(-c2coc3cc(O)ccc3c2=O)cc1`, the outcome was Active.
Consider `COc1cc(O)c2c(=O)c(-c3ccc(O)cc3O)coc2c1`, for which the result was Active.
Turning to `COc1ccc(-c2coc3cc(O)ccc3c2=O)cc1OC`, the result was Active.
